# In patent publication US20020183384A1, “Methods of treating nuclear factor-kappa B mediated diseases and disorders” (priority 2001, published 2002):
# System: NF-κB mediated transcription
# Assay: NF-κB driven β-lactamase reporter assay in ECV-304 NF-κB.βlaZ cells (AURORA CCF2 fluorescence)
# Format: cell-based, human
# Conditions: 10 μM compound; ECV-304 NF-κB.βlaZ cells stimulated with 10 ng/mL TNF-α or 100 pg/mL IL-1β, 6 hours at 37° C.; inhibition of maximum blue/green ratio
# Source text: Introduction: Described below is an in vitro, cell-based, high throughput screening assay that reliably identifies inhibitors of NF-κB mediated transcription.
# The assay takes advantage of AURORA (Aurora Bioscience Corporation, La Jolla, Calif.) fluorescence technology. Endothelial cell vein-304 (ECV-304) cells, an endothelial-like immortalized cell type, may be stably transfected with a plasmid vector containing the cDNA for the enzyme β-lactamase (under the control of a basal promoter, Stratagene pNFκB-luc vector) and 5 copies of an human immunodeficiency virus-1 (HIV-1) NF-κB binding site. ECV-304 cells are described by Takahashi K. et al. in Spontaneous Transformation and Immobilization of Human Endothelial Cells, In Vitro Cell. Dev. Biol. 1990;25:265-274. Activation of NF-κB in ECV-304 by cytokines such as TNF-α or interleuken-1 beta (IL-1β) results in the production of β-lactamase, which cleaves a green fluorescent substrate (excitation/emission wavelengths 395 nm1530 nm) to yield a blue fluorescent product (excitation/emission wavelengths 395 nm/460 nm). Visually, the uncleaved green fluorescent substrate is sequestered intracellularly and emits green fluorescence, while the cleaved product emits blue fluorescence. Fluorescence is quantitated spectrophotometrically, and the spectral intensity of blue fluorescence versus green fluorescence can be used to calculate the degree of activation of NF-κB.
# The assay was performed as outlined here and described in detail below. ECV-304 cells permanently transfected with the NF-κB driven β-lactamase gene (ECV-304 NF-κB.βlaZ) were plated in clear-bottom, black 96-well plates (1.25×10^4 cells/well) in media-199 (M-199) media containing 2% fetal bovine serum (FBS). […] The AURORA fluorescent disclosing reagent was then added. After one additional hour, the plates were read in a fluorometer at the blue 395 nm/460 nm (excitation/emission) and green 395 nm/530 nm wavelengths. Then the blue/green emission ratio was calculated. […] An IC50 for said sulfonylaminocarbonyl derivative was determined from a dose-response curve. This assay was designed to be optionally run in either high or low throughput screening modes.
# Five copies of the HIV-1 NF-κB binding site (5′-[…]-3′) along with a TATA box were inserted into the EcorRI/BamHI sites of plasmid pMCRBlaZ to create plasmid p5×KBBlaZ, which procedure is illustrated in Scheme 1 below. [formula]
# Cells were selected for antibiotic resistance with Zeocin for approximately 2 weeks. After the stable population had been expanded to a significant number of cells, it was stimulated with IL-1β and stained with AURORA CCF2 dye, a membrane permeant, intracellularly-trapped, fluorescent substrate. Cells that fluoresced blue (indicating a positive response of the NF-κB/β-lactamase reporter to stimulation by IL-1β) in the stimulated/stained population were then sorted by flow cytometry into a pool. The pool was expanded and stained with CCF2, and then the cells that fluoresced green from this unstimulated population (indicating a low background of the NF-κB/β-lactamase reporter construct) were cloned by flow cytometry after adding 1 cell per well in 96-well plates. Clones were allowed to expand. Each cloned cell line was then examined for fold stimulation after stimulation with IL-1β using a CCF2 reporter assay, and these stimulated cells were compared to unstimulated cells.
# Cells: ECV-304 NF-κB β-Lactamase clone 1E8
# Inhibitors: Prepared stock solutions of aminosulfonyl derivatives at 10 mM concentration in DMSO;
# c) Added 10 μL of B into appropriate well in assay plate (the final concentration of drug is 10 μM), and […]
row,SMILES,Percent Inhibition at 10 μM [%]
1,"COC(=O)C(C)(Cc1c[nH]c2ccccc12)NS(=O)(=O)NC(=O)OC1C2CC3CC(C2)CC1C3 (racemic) [Example 101, DL-Tryptophan, α-methyl-N-[[[(tricyclo[3.3.1.1^3,7]dec-2-yloxy)-carbonyl]amino]sulfonyl]-, methyl ester]",<10
2,"CC1(C)OCC(NC(=O)NS(=O)(=O)NC2COC(C)(C)OC2c2ccccc2)C(c2ccccc2)O1 (single isomer, unassigned) [Example 105, Urea, N-(2,2-dimethyl-4-phenyl-1,3-dioxan-5-yl)-N′-[[(2,2-dimethyl-4-phenyl-1,3-dioxan-5-yl)amino]sulfonyl]-, stereoisomer]",<10
3,"Cc1cc(C(C)(C)C)c(OC(=O)NS(=O)(=O)NC(c2ccccc2)c2ccccc2)c(C(C)(C)C)c1 [Example 3, Carbamic acid, [[(diphenylmethyl)amino]sulfonyl]-, 2,6-bis(l,1-dimethylethyl)-4-methylphenyl ester]",79.34
4,"CC(C)c1cccc(C(C)C)c1NC(=O)NS(=O)(=O)Nc1c(C(C)C)cccc1C(C)C [Example 7, Urea, N-[2 ,6-bis(1-methylethyl)phenyl]-N′-[[[2,6-bis(1-methylethyl)phenyl]-amino]sulfonyl]-]",37.04
5,"CC(C)c1cccc(C(C)C)c1OC(=O)NS(=O)(=O)Nc1nc2ccccc2[nH]1 [Example 16, Carbamic acid, [(1H-benzimdazol-2-ylamino)sulfonyl]-, 2,6-bis(1-methylethyl)-phenyl ester]",<10

# Same assay, conditions: Homo sapiens, ECV-304, 6 h, 10 μM compound; ECV-304 NF-κB.βlaZ cells stimulated with 10 ng/mL TNF-α or 100 pg/mL IL-1β, 6 hours at 37° C.; inhibition of maximum blue/green ratio; read-out: Percent Inhibition at 10 μM
row,SMILES,inhibition at 10 µM [%]
1,"CC(C)c1cccc(C(C)C)c1NC(=O)NS(=O)(=O)NC(c1ccccc1)c1ccccc1 [Example 8, Urea, N-[2,6-bis(1-methylethyl)phenyl]-N′-[[(diphenylmethyl)amino]-sulfonyl]-]",< 10
2,"CC(C)c1cccc(C(C)C)c1NC(=O)NS(=O)(=O)NCC(c1ccccc1)c1ccccc1 [Example 9, Urea, N-[2,6-bis(1-methylethyl)phenyl]-N′-[[(2,2-diphenylethyl)amino]-sulfonyl]-]",33.1
3,"CC(C)c1cccc(C(C)C)c1NC(=O)NS(=O)(=O)N(Cc1ccccc1)Cc1ccccc1 [Example 17, N-[2,6-bis(1-methylethyl)phenyl]-N′-[[bis(phenylmethyl)amino]-sulfonyl]-urea]",43.8
4,"CC(C)c1cccc(C(C)C)c1NS(=O)(=O)NC(=O)NC(c1ccccc1)c1ccccc1 [Example 18, N-[[[2,6-bis(1-methylethyl)phenyl]amino]sulfonyl]-N′-(diphenylmethyl)-urea]",35.9
5,"CC(C)c1cccc(C(C)C)c1NC(=O)NS(=O)(=O)NC1c2ccccc2-c2ccccc21 [Example 19, N-[2,6-bis(1-methylethyl)phenyl]-N′-[(9H-fluoren-9-ylamino)-sulfonyl]-urea]",20.2
6,"CC(C)c1cccc(C(C)C)c1NC(=O)NS(=O)(=O)N(C(C)C)C(C)C [Example 20, N-[2,6-bis(1-methylethyl)phenyl]-N′-[[bis(1-methylethyl)amino]-sulfonyl]-urea]",< 10
7,"CCCCN(CCCC)S(=O)(=O)NC(=O)Nc1c(C(C)C)cccc1C(C)C [Example 21, N-[2,6-bis(1-methylethyl)phenyl]-N′-[(dibutylamino)sulfonyl]-urea]",29.4
8,"CC(C)c1cccc(C(C)C)c1NC(=O)NS(=O)(=O)N(Cc1ccccc1)C(C)C [Example 22, N-[2,6-bis(1-methylethyl)phenyl]-N′-[[(1-methylethyl)-(phenylmethyl)amino]-sulfonyl]-urea]",20.2
9,"CCCCCCCCN(CCCCCCCC)S(=O)(=O)NC(=O)Nc1c(C(C)C)cccc1C(C)C [Example 23, N-[2,6-bis(1-methylethyl)phenyl]-N′-[(dioctylamino)sulfonyl]-urea]",38.7

# Same assay, conditions: Homo sapiens; 10 μM compound; ECV-304 NF-κB.βlaZ cells stimulated with 10 ng/mL TNF-α or 100 pg/mL IL-1β, 6 hours at 37° C.; inhibition of maximum blue/green ratio; read-out: Percent Inhibition at 10 μM
row,SMILES,inhibition at 10 µM [%]
1,"CC(C)c1cccc(C(C)C)c1OC(=O)NS(=O)(=O)NC(c1ccccc1)c1ccccc1 [Example 1, Carbamic acid, [[(diphenylmethyl)amino]sulfonyl]-, 2,6-bis(1-methylethyl)phenyl ester]",24.8
2,"CC(C)(C)c1cccc(C(C)(C)C)c1OC(=O)NS(=O)(=O)NC(c1ccccc1)c1ccccc1 [Example 2, Carbamic acid, [[(diphenylmethyl)amino]sulfonyl]-, 2,6-bis(1,1-dimethylethyl)phenyl ester]",37.2
3,"CC(C)c1cccc(C(C)C)c1NS(=O)(=O)NC(=O)Oc1c(C(C)C)cccc1C(C)C [Example 4, Carbamic acid, [[[2,6-bis(1-methylethyl)phenyl]amino]sulfonyl]-, 2,6-bis(1-methylethyl)phenyl ester]",35.3
4,"CC(C)c1cccc(C(C)C)c1NS(=O)(=O)NC(=O)Oc1c(C(C)(C)C)cccc1C(C)(C)C [Example 5, Carbamic acid, [[[2,6-bis(1-methylethyl)phenyl]amino]sulfonyl]-, 2,6-bis(1,1-dimethylethyl)phenyl ester]",56.4
5,"Cc1cc(C(C)(C)C)c(OC(=O)NS(=O)(=O)Nc2c(C(C)C)cccc2C(C)C)c(C(C)(C)C)c1 [Example 6, Carbamic acid, [[[2,6-bis(1-methylethyl)phenyl]amino]sulfonyl]-, 2,6-bis(1,1-dimethylethyl)-4-methylphenyl ester]",64.9
6,"CC(C)c1cccc(C(C)C)c1OC(=O)NS(=O)(=O)NCC(c1ccccc1)c1ccccc1 [Example 10, Carbamic acid, [[(2,2-diphenylethyl)amino]sulfonyl]-, 2,6-bis(1-methylethyl)-phenyl ester]",39.7
7,"CC(C)(C)c1cccc(C(C)(C)C)c1OC(=O)NS(=O)(=O)NCC(c1ccccc1)c1ccccc1 [Example 11, Carbamic acid, [[(2,2-diphenylethyl)amino]sulfonyl]-, 2,6-bis(1,1-dimethylethyl)-phenyl ester]",50.1
8,"Cc1cc(C(C)(C)C)c(OC(=O)NS(=O)(=O)NCC(c2ccccc2)c2ccccc2)c(C(C)(C)C)c1 [Example 12, Carbamic acid, [[(2,2-diphenylethyl)amino]sulfonyl]-, 2,6-bis(1,1-dimethylethyl)-4-methylphenyl ester]",57
9,"CC(C)c1cccc(C(C)C)c1OC(=O)NS(=O)(=O)Nc1ccccc1 [Example 13, Carbamic acid, [(phenylamino)sulfonyl]-, 2,6-bis(1-methylethyl)phenyl ester]",< 10
10,"CC(C)(C)c1cc(O)cc(C(C)(C)C)c1OC(=O)NS(=O)(=O)Nc1ccccc1 [Example 14, Carbamic acid, [(phenylamino)sulfonyl]-, 2,6-bis(1,1-dimethylethyl)-4-hydroxyphenyl ester]",13.8
11,"CC(C)(C)c1cccc(C(C)(C)C)c1OC(=O)NS(=O)(=O)Nc1ccccc1 [Example 15, Carbamic acid, [(phenylamino)sulfonyl]-, 2,6-bis(1,1-dimethylethyl)-phenyl ester]",12.6
12,"CC(C)(C)c1cccc(C(C)(C)C)c1OC(=O)NS(=O)(=O)N(Cc1ccccc1)Cc1ccccc1 [Example 24, Carbamic acid, [[bis(phenylmethyl)amino]sulfonyl]-, 2,6-bis(1,1-dimethylethyl)-phenyl ester]",31
13,"CC(C)c1cccc(C(C)C)c1OC(=O)NS(=O)(=O)N(Cc1ccccc1)Cc1ccccc1 [Example 25, Carbamic acid, [[bis(phenylmethyl)amino]sulfonyl]-, 2,6-bis(1-methylethyl)-phenyl ester]",33.2
